# Molecular target: T1, F508del (Homo sapiens, UniProt P13569, DEL508-508)
# T1 construct: expressed in transfected cells
# Test: Protocol 1: membrane potential optical assay (FLIPR III, voltage sensing dye), identification of potentiator compounds
# Format: cell-based
# Settings: Table 3, compounds of Table 1
# Method in brief: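 Read-out: change in voltage-sensing dye fluorescence (FLIPR III) as a measure of F508del conductance. Temperature-corrected (27° C, 24 hrs) NIH 3T3 cells expressing F508del are pretreated with potentiators, dye-loaded, then stimulated with forskolin under a chloride ion gradient using chloride-free gluconate bath.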
# T1 sequence (P13569 with tags, fused parts or gaps DEL508-508): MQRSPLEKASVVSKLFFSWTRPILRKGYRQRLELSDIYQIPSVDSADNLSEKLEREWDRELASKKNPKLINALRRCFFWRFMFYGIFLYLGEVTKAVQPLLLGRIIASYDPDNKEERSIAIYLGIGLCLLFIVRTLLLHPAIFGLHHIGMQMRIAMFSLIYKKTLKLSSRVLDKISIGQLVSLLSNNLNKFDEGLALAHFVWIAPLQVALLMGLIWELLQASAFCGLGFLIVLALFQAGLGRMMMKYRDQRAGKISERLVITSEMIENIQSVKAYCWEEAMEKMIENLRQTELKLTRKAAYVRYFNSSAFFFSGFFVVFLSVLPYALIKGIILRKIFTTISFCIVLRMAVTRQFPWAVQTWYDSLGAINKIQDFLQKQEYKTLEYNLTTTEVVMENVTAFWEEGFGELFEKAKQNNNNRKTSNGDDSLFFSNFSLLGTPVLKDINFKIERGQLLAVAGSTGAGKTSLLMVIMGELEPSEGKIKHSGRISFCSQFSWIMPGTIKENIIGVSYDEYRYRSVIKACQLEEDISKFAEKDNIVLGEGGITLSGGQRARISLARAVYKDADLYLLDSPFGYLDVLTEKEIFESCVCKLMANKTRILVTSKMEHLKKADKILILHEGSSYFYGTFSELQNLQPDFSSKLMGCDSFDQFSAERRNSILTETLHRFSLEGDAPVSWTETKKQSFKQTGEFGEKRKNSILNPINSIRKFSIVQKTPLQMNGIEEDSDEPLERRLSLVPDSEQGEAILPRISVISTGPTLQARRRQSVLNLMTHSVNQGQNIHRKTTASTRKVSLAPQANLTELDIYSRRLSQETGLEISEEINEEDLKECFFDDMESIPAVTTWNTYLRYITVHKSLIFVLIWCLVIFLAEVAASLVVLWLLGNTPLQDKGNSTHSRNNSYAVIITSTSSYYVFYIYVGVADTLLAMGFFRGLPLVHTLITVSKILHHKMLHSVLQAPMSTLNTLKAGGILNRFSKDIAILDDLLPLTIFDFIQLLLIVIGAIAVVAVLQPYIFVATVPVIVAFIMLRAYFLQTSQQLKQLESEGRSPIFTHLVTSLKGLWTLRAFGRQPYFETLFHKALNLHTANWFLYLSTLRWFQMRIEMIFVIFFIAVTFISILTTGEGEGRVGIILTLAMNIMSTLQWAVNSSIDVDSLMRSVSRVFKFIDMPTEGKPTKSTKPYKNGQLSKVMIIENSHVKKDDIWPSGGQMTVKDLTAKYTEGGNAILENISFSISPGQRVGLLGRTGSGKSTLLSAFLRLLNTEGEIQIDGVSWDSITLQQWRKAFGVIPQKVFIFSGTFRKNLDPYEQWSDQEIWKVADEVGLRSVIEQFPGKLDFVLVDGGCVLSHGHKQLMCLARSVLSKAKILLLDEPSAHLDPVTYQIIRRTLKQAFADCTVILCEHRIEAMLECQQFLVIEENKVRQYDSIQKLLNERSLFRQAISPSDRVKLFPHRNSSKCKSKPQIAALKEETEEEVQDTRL
row,SMILES,EC30
1,"Cc1ccc(C)c(-c2ccc(C(=O)NS(=O)(=O)N3CC[C@H](N)C3)c(N3C[C@@H](C)CC3(C)C)n2)c1 [Compound 1736, N-[(3S)-3-aminopyrrolidin-1-yl]sulfonyl-6-(2,5-dimethylphenyl)-2-[(4S)-2,2,4-trimethylpyrrolidin-1-yl]pyridine-3-carboxamide]",++ (“++” means between 3 uM and 10 uM)
2,"CCc1ccc(-c2ccc(C(=O)NS(=O)(=O)c3cccc(N)n3)c(Oc3c(C)cc(C)cc3C)n2)cc1 [Compound 900, N-[(6-amino-2-pyridyl)sulfonyl]-6-(4-ethylphenyl)-2-(2,4,6-trimethylphenoxy)pyridine-3-carboxamide]",+++ (“+++” means <3 uM)
3,"CC(C)COc1cc(F)cc(-c2ccc(C(=O)NS(=O)(=O)c3cccc(N)n3)c(N3CCOCC3(C)C)n2)c1 [Compound 1267, N-[(6-amino-2-pyridyl)sulfonyl]-2-(3,3-dimethylmorpholin-4-yl)-6-(3-fluoro-5-isobutoxy-phenyl)pyridine-3-carboxamide]",+++ (“+++” means <3 uM)
4,"Cc1cccc(C)c1Oc1nc(C(C)(C)C)ccc1C(=O)NS(=O)(=O)c1cccc(N)n1 [Compound 1243, N-[(6-amino-2-pyridyl)sulfonyl]-6-tert-butyl-2-(2,6-dimethylphenoxy)pyridine-3-carboxamide]",+++ (“+++” means <3 uM)
5,"Cc1cc(C)c(Oc2nc(-c3cc(F)cc(OC(C)C)c3)ccc2C(=O)NS(=O)(=O)c2cccc(N)n2)c(C)c1 [Compound 1138, N-[(6-amino-2-pyridyl)sulfonyl]-6-(3-fluoro-5-isopropoxy-phenyl)-2-(2,4,6-trimethylphenoxy)pyridine-3-carboxamide]",+++ (“+++” means <3 uM)
6,"Cc1cc(C)c(Oc2nc(-c3cccc(Cl)c3)ccc2C(=O)NS(=O)(=O)c2ccc[nH]c2=O)c(C)c1 [Compound 1095, 6-(3-chlorophenyl)-N-[(2-oxo-1H-pyridin-3-yl)sulfonyl]-2-(2,4,6-trimethylphenoxy)pyridine-3-carboxamide]",++ (“++” means between 3 uM and 10 uM)
7,"COc1cccc(-c2ccc(C(=O)NS(=O)(=O)c3ccc[nH]c3=O)c(N3C[C@@H](C)CC3(C)C)n2)c1OC [Compound 1786, 6-(2,3-dimethoxyphenyl)-N-[(2-oxo-1H-pyridin-3-yl)sulfonyl]-2-[(4S)-2,2,4-trimethylpyrrolidin-1-yl]pyridine-3-carboxamide]",++ (“++” means between 3 uM and 10 uM)
8,"CCOc1cccc2c1CN(Cc1c(C)cc(C)cc1C)C2(C)C(=O)NS(=O)(=O)c1ccccc1 (stereo not drawn) [Compound 1539, N-(benzenesulfonyl)-4-ethoxy-1-methyl-2-[(2,4,6-trimethylphenyl)methyl]isoindoline-1-carboxamide]",+++ (“+++” means <3 uM)
9,"COc1ccccc1S(=O)(=O)NC(=O)c1ccc(C(C)(C)C)nc1-c1ccc(C)cc1 [Compound 1124, 6-tert-butyl-N-(2-methoxyphenyl)sulfonyl-2-(p-tolyl)pyridine-3-carboxamide]",+++ (“+++” means <3 uM)
10,"COC1CC=C(c2cnc(N3CC(C)CC3(C)C)c(C(=O)NS(=O)(=O)c3cccc(N)n3)c2)CC1 (stereo not drawn) [Compound 1920, N-[(6-amino-2-pyridyl)sulfonyl]-5-(4-methoxycyclohexen-1-yl)-2-(2,2,4-trimethylpyrrolidin-1-yl)pyridine-3-carboxamide]",++ (“++” means between 3 uM and 10 uM)
11,"C[C@@H]1CN(c2nc(-c3ccc(C(F)(F)F)cc3)ccc2C(=O)NS(=O)(=O)c2ccc[nH]c2=O)C(C)(C)C1 [Compound 1799, N-[(2-oxo-1H-pyridin-3-yl)sulfonyl]-6-[4-(trifluoromethyl)phenyl]-2-[(4S)-2,2,4-trimethylpyrrolidin-1-yl]pyridine-3-carboxamide]",+++ (“+++” means <3 uM)
12,"Cc1cc(C)c(Oc2nc(-c3ccc(C)c(F)c3)ccc2C(=O)NS(=O)(=O)c2cccc(N)n2)c(C)c1 [Compound 1000, N-[(6-amino-2-pyridyl)sulfonyl]-6-(3-fluoro-4-methyl-phenyl)-2-(2,4,6-trimethylphenoxy)pyridine-3-carboxamide]",+++ (“+++” means <3 uM)

# — patent publication US10758534B2 (Vertex Pharmaceuticals Incorporated, priority 2014, dated 2020)
